Data on one compound can be found in article PMC8004991, “The Interaction of the Flavonoid Fisetin with Human Glutathione Transferase A1-1” (Metabolites, 2021).

This experiment addresses T1, human glutathione transferase A1-1 (hGSTA1-1) (Homo sapiens, UniProt P08263).
T1 construct: gene GSTA1
T1 sequence (P08263 2-222): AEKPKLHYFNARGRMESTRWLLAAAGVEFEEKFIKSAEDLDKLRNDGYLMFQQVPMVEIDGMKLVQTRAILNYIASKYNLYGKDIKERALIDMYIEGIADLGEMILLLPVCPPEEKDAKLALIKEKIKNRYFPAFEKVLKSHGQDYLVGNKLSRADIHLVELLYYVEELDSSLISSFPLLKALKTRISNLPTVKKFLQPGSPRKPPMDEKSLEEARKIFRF
The experiment is described as follows: CDNB/GSH conjugation assay with purified recombinant hGSTA1-1; IC50 and steady-state inhibition kinetics (Ki […] vs GSH, […] vs CDNB). In kind it is biochemical. From the text: Fisetin appears to be a strong inhibitor for hGSTA1-1

For `O=c1c(O)c(-c2ccc(O)c(O)c2)oc2cc(O)ccc12` [fisetin], the IC50 turned out to be 1200 ± 100 nM.
